The subject of assay [1] is HEK293 cells. The class given is cell-based, human. The note with it: for IFN induction by HIV-1-GFP from inhibitor-treated cGAS-reconstituted producer cells: 20 μM GW4869 or 60 μM Ac-DEVD-CHO during virus preparation; for IFN response in target cells in the presence of inhibitor: HEK293 cells infected with HIV-1-GFP from cGAS expressing cells, inhibitor 5 μM 1 hour prior to infection.

In assay [2] the test system is IFNβ promoter reporter. The class given is cell-based, human. The note with it: HEK293 cells transfected with 2 μg 2′-3′-cGAMP, 24 hours.

Experimental findings from US10010607B2, “Method for preparing viral particles with cyclic dinucleotide and use of said particles for inducing immune response” (priority 2014, dated 2018) are described below.

Turning to `O=C(/C=C/c1ccc(/C=C/C(=O)Nc2ccc(C3=NCCN3)cc2)cc1)Nc1ccc(C2=NCCN2)cc1` [GW4869], the “IFN induction by HIV-1-GFP from inhibitor-treated cGAS-reconstituted producer cells” value in assay [1] is “did not diminish IFN induction”.
With `Nc1nc2c(ncn2[C@@H]2O[C@@H]3COP(=O)(O)O[C@H]4[C@@H](O)[C@H](n5cnc6c(N)ncnc65)O[C@@H]4COP(=O)(O)O[C@@H]2[C@@H]3O)c(=O)[nH]1` [cGAMP, 2′-3′-cyclic GMP-AMP], the “IFN induction in response to cGAMP (IFNβ promoter reporter)” value in assay [2] is given as “induce IFN”.
In the case of `Cc1ccnc2c1NC(=O)c1cccnc1N2C1CC1` [nevirapine], the “IFN response in target cells in the presence of inhibitor” value in assay [1] was “independent”.
Take `Cc1nnc(C(=O)NC(C)(C)c2nc(C(=O)NCc3ccc(F)cc3)c(O)c(=O)n2C)o1` [raltegravir]: the “IFN response in target cells in the presence of inhibitor” value in assay [1] is on record as “independent”.
Ac-DEVD-CHO: the “IFN induction by HIV-1-GFP from inhibitor-treated cGAS-reconstituted producer cells” value in assay [1] is “did not diminish IFN induction”.
